The results in this text go back to article PMC12567096, “An Efficacy- and In Vivo Exposure-Oriented Integrated Study to Investigate the Effective Components of Qishen Granule” (Pharmaceuticals, 2025).

The test system of series [1] is H9c2 cells. The series is described as follows: Cytotoxicity on H9c2 cells (CCK-8). It counts as cell-based, rat. On the procedure: (§1) Rat myocardial H9c2 cells (purchased from China Infrastructure of Cell Line Resources, Institute of Basic Medical Sciences, Chinese Academy of Medical Sciences) were cultured in DMEM supplemented with 10% fetal bovine serum (FBS), Penicillin (100 U/mL), and Streptomycin (100 μg/mL) at 37 °C under a humidified atmosphere of 5% CO2 and 95% air. For OGD/R treatment, H9c2 cells were cultured in glucose-free DMEM under hypoxic conditions (95%N2 + 5%CO2) for 4 h at 37 °C followed by complete medium under normal conditions with air (95%) and CO2 (5%) for 2 h. A control group was maintained under normal culture conditions (with glucose-containing DMEM and 5% CO2) without undergoing OGD/R treatment. CCK8 was used to assess cell viability. After treatment, H9c2 cells were seeded in 96-well plates, with each well supplemented with 10 μL of CCK-8 solution and then incubated for 1 h. Finally, the absorbance at 450 nm was detected by a microplate reader (Model […] 200 PRO, TECAN, Grodig, Austria).
When evaluating the cytotoxicities of the absorbed compounds, the H9c2 cells were seeded in 96-well plates at a density of 1 × 10^4 cells/well; when cells reached 80% confluence, […] Afterward, the protective effects were verified by assessing the cell viability when treating with different concentrations (1, 10, 25, 50, and 100 μM) of the analytes prior to OGD/R treatment.

Series [2] can be described thus: Concentrations of 24 analytes in QSG treated plasma (Table S5). Particulars: for Concentration: QSG treated plasma, n = 5.
The nature of series [3]: Pharmacokinetic study in rats after oral administration of QSG. The conditions noted are these: for Oral relative bioavailability: exposure level (AUC0→∞) compared with the dosage of each compound in QSG; for AUC(0-inf): AUC0→∞.
Procedure: Ion source parameters were set as follows: temperatures of drying gas and sheath gas were 300 °C and 300 °C, flow rates of drying gas and sheath gas were 7 L/min and 11 L/min, the nebulizer was set at 35 psig, capillary voltage was 3500 V (−), and nozzle voltage was 2000 V (−). […] Chromatographic separations were conducted on a ZORBAX Eclipse Plus C18 column (3.0 × 50 mm, 1.8 μm, Agilent Technologies, California, USA). The mobile phase was composed of 0.1% aqueous FA (A, (v/v)) and 0.1% formic acid methanol (B), the flow rate was set at 0.5 mL/min, and the column oven was maintained at 40 °C.
Protein precipitation was carried out for each time point for plasma samples, calibration samples, or QC samples by introducing four volumes of acetonitrile containing 400 ng/mL of icariin. Then, 10 μL 10% aqueous ascorbic acid (v/v) was spiked into each sample to prevent the oxidation of phenolic compounds. […] An aliquot (450 μL) of the supernatant was transferred and dried under nitrogen vacuum.
The pharmacokinetic parameters were calculated by DAS software (version 2.0) for a non-compartmental analysis.
Series [4] concerns OGD/R-induced H9c2 cells. The series is described as follows: Protective effect on OGD/R-induced H9c2 cells (CCK-8 cell viability). It counts as cell-based, rat. Particulars: for H9c2 cell survival after OGD/R (in words): 1, 10, 25, 50 and 100 μM prior to OGD/R, vs model group; for EC50: protective effect against OGD/R injury, H9c2 cell viability. On the procedure:
as §1
When evaluating the cytotoxicities of the absorbed compounds, the H9c2 cells were seeded in 96-well plates at a density of 1 × 10^4 cells/well; when cells reached 80% confluence, they were treated with 25 and 50 μM of the 24 analytes to screen the non-toxic concentration ranges. Afterward, the protective effects were verified by assessing the cell viability when treating with different concentrations (1, 10, 25, 50, and 100 μM) of the analytes prior to OGD/R treatment.

Where [5] appears, read: rat plasma, single oral 7 g/kg QSG, n = 6.
[6] abbreviates: Sprague Dawley, rat, plasma, oral, 7 g/kg.
The mark [7] stands for this setting: Sprague Dawley, rat, plasma, po, 7 g/kg.

The term Cmax denotes the highest concentration seen after dosing. Usually MRT stands for a mean duration of stay, worked out from the concentration-time curve. What is called Tmax is the time from dosing to the highest level. One may read the EC50 as the concentration needed to bring the measured effect to its halfway point. Consider `O=C(/C=C/c1ccc(O)c(O)c1)O[C@H]1[C@H](O)C[C@](O)(C(=O)O)C[C@H]1O` [Cryptochlorogenic acid], for which the Inhibition rate is on record as -16.2 ± 4.2% in series [1] (25 μM, H9c2 cells, n=3); -3.4 ± 0.2% in series [1] (50 μM, H9c2 cells, n=3); 5.2 ± 0.4% in series [1] (100 μM, H9c2 cells, n=3). Also, the “Effect on H9c2 cell viability / cytotoxicity (in words)” value in series [1] (CCK-8, compared to the control group) is given as “significantly enhanced cell viabilities”. Besides, the Concentration in series [2] (0.08 h) worked out at 17.855 ± 11.504 ng/mL; in series [2] (0.17 h), 95.627 ± 23.461 ng/mL; in series [2] (0.5 h), 135.955 ± 20.918 ng/mL; in series [2] (1 h), 54.572 ± 22.599 ng/mL; in series [2] (2 h), 29.505 ± 18.460 ng/mL; in series [2] (4 h) it was 18.424 ± 6.281 ng/mL. Besides, the Concentration in series [2] (8 h) is 21.857 ± 6.099 ng/mL; in series [2] (12 h) it was 12.189 ± 3.932 ng/mL. The “AUC0→∞” value in series [3] (Table S12, rats, oral QSG) was 576.2 ng·h/mL; in series [3] (setting [5]) it was 576.2 ± 58.15 ng·h/mL. Besides, the AUCi in series [3] (exposure (AUC0→∞) of the component in rats after oral QSG, as used for ECI) stood at 576.2. The same compound yielded an Oral relative bioavailability in series [3] of 0.026%. Moreover, in series [3] (from Table S12, rats, oral QSG), the “Absorption efficiency / bioavailability (in words)” value is “relatively higher absorption rates”. The AUC0→t in series [3] (setting [5]) was determined as 532.2 ± 41.45 ng·h/mL. The same compound showed a peak concentration (Cmax) in series [3] (setting [5]) of 184.1 ± 57.43 ng/mL. For the same compound, the MRT in series [3] (setting [5]) is given as 8.933 ± 0.5290 h. This compound also yielded a T1/2 in series [3] (setting [5]) of 10.84 ± 2.625 h. Besides, the Tmax in series [3] (setting [5]) came out at 0.364 ± 0.076 h. Moreover, in series [4], the “H9c2 cell survival after OGD/R (in words)” value is recorded as “significantly improve H9c2 cell survival rates”. This compound also yielded a concentration giving a half-maximal response (EC50) in series [4] of 1.13 µM.
As usually defined, the inhibition is the percentage by which the read-out fell short of the control. Broadly, the AUC is concentration integrated over time. Read a low AUC as less exposure. As usually defined, the AUC(0-t) is exposure summed from dosing to a finite time, without extrapolation to infinity. A low value points to low exposure. A word on the half-life: it is the time needed for the level to fall by half in the phase considered. A high value points to slow decline. As a reminder, the AUC(0-inf) is the area under the concentration-time curve extrapolated to infinity. On to `COc1ccc(-c2coc3cc(O)ccc3c2=O)cc1` [Formononetin], for which the inhibition at 25 µM in series [1] (Rattus norvegicus, 25 μM, H9c2 cells, n=3, read-out: Inhibition rate) amounted to 10.7 ± 4.5%. Also, the inhibition at 50 µM in series [1] (Rattus norvegicus, 50 μM, H9c2 cells, n=3, read-out: Inhibition rate) turned out to be 10.8 ± 5.2%. In series [1] (Rattus norvegicus, 100 μM, H9c2 cells, n=3, read-out: Inhibition rate), the inhibition at 100 µM stood at 13.5 ± 2.2%. In series [2] (setting [6]), this compound had a concentration at 0.08 h of 0.74 ± 0.932 ng/mL, a concentration at 0.17 h of 2.81 ± 1.24 ng/mL, a concentration at 0.5 h of 4.23 ± 0.976 ng/mL and a concentration at 1 h of 2.77 ± 1.06 ng/mL. In addition, in series [2] (setting [6]), the concentration at 2 h is 1.45 ± 0.436 ng/mL, the concentration at 4 h was found to be 1.03 ± 0.395 ng/mL, the concentration at 8 h was 0.656 ± 0.349 ng/mL and the concentration at 12 h was determined as 0.289 ± 0.213 ng/mL. In series [3] (setting [7]), this compound displayed an AUC of 27.7 ng·h/mL, an area under the curve AUC(0-t) of 18.5 ± 5.01 ng·h/mL, a Cmax of 4.31 ± 0.952 ng/mL and a mean residence time (MRT) of 6.79 ± 4.77 h. Moreover, in series [3] (setting [7]), the Tmax came to 0.516 ± 0.15 h and the half-life was 10.9 ± 9.19 h. For the same compound, the AUC(0-inf) in series [3] (Sprague Dawley, rat, plasma, po, 7 g/kg, Table S12, rats, oral QSG) came to 27.7 ng·h/mL. This compound registered an AUC(0-inf) in series [3] (Sprague Dawley, rat, plasma, po, 7 g/kg, rat plasma, single oral 7 g/kg QSG, n = 6) of 27.7 ± 12.2 ng·h/mL. In series [3], this compound returned an Oral relative bioavailability of 0.033%. Besides, in series [4], the “H9c2 cell survival after OGD/R (in words)” value is “significantly improve H9c2 cell survival rates”. The same compound registered an EC50 in series [4] (Rattus norvegicus) of 65 µM. Moreover, the “Protective effects on OGD/R-induced H9c2 cells (in words)” value in series [4] (at 50 and 100 μM) is listed as “significant protective effects”.
